From patent US8785452B2, “Anti-infective compounds” (priority 2008, dated 2014)
In brackets after ≈: the same amount, converted by molar mass. Where two headings read alike, the source gives them in different places.

Tested on: M. tuberculosis H37Rv-GFP
Assay: microbe, parasite or virus in culture
Assay type: cell-based, Mycobacterium tuberculosis
Conditions: Mycobacterium tuberculosis, H37RV; for inhibition at 20 µM: Macrophage
[1] = confirmation, 20 uM, intracellular, read-out: QIM Confirm % Inhibition 20 uM
[2] = primary screen, 20 μM, intracellular, read-out: Primary QIM % Inhibition
[3] = read-out: Primary QIM % Inhibition
[4] = read-out: QIM Confirm % Inhibition 20 uM

Molecule `COc1ccccc1N1CCN(C(=O)c2ccc([N+](=O)[O-])o2)CC1` [IPK 000 235 12] has an inhibition at 20 µM [1] of 26.9% and an inhibition at 20 µM [2] of -67.9%.

`C/C(=C\c1ccc2c(c1)OCO2)[N+](=O)[O-]` [IPK 000 240 37] showed an inhibition at 20 µM [3] of 17% and an inhibition at 20 µM [4] of 67.5%.

For `O=C(O)c1cccc2c1NC(c1ccccc1[N+](=O)[O-])C1Cc3ccccc3C21` (centres unmarked) [IPK 000 241 72], the inhibition at 20 µM [1] was 28% and the inhibition at 20 µM [2] was -43.3%.

In the case of `CS(=O)(=O)c1nnnn1-c1ccccc1` [IPK 000 244 12], the inhibition at 20 µM [1] is reported as 11.8% and the inhibition at 20 µM [2] is reported as 29.9%.

Work on `O=C(COc1ccc(F)cc1)Nc1nccs1` [IPK 000 247 44] yielded an inhibition at 20 µM [1] of 97.1% and an inhibition at 20 µM [2] of 89.1%.

`CC(C)(C)c1ccc(C(=O)NC2CCCCCCC2)cc1` [IPK 000 248 71] was tested, and the inhibition at 20 µM [1] was 79% and the inhibition at 20 µM [2] was 79.5%.

Work on `CCCCS(=O)(=O)Nc1ccc(Cc2ccncc2)cc1` [IPK 000 249 12] yielded an inhibition at 20 µM [1] of 53.2% and an inhibition at 20 µM [2] of 23.6%.

In the case of `O=C1OCc2cc(NC(=O)C34CC5CC(CC(C5)C3)C4)ccc21` [IPK 000 249 14], the inhibition at 20 µM [1] is reported as 68.6% and the inhibition at 20 µM [2] is reported as 45%.

`O=C(NC12CC3CC(CC(C3)C1)C2)N1CCN(c2ccccc2)CC1` [IPK 000 249 84] was tested, and the inhibition at 20 µM [1] was 80.9% and the inhibition at 20 µM [2] was 78.2%.

`O=C(Oc1cccc2cccnc12)c1ccccc1` [IPK 000 251 49] showed an inhibition at 20 µM [3] of 27% and an inhibition at 20 µM [4] of 15%.

In the case of `CCOC(=O)C1=C(COc2ccc(F)cc2)NC(=O)NC1c1ccc2c(c1)OCO2` (centres unmarked) [IPK 000 251 80], the inhibition at 20 µM [1] is reported as 38.2% and the inhibition at 20 µM [2] is reported as 25.5%.

`Cc1noc(NS(=O)(=O)c2ccc(N)cc2)c1C` [IPK 000 254 12] gave an inhibition at 20 µM [1] of 13.2% and an inhibition at 20 µM [2] of 30.3%.

With `CCOC(=O)c1sc(NC(=O)CCCc2ccccc2)nc1C` [IPK 000 254 25] the inhibition at 20 µM [1] was 18.5% and the inhibition at 20 µM [2] was 32.5%.

`CCOC(=O)c1sc(NC(=O)CCC2CCCCC2)nc1C` [IPK 000 255 46] gave an inhibition at 20 µM [1] of 53.1% and an inhibition at 20 µM [2] of 25%.

Work on `CCc1cccc(NC(=O)c2cccs2)c1` [IPK 000 257 61] yielded an inhibition at 20 µM [1] of 79.9% and an inhibition at 20 µM [2] of 71.5%.

`O=[N+]([O-])c1ccc(CSc2nnnn2C2CCCCC2)cc1` [IPK 000 258 07] gave an inhibition at 20 µM [1] of 72.7% and an inhibition at 20 µM [2] of 49.9%.

In the case of `O=C1Nc2ccccc2/C1=C(\c1ccccc1)c1nc2ccccc2[nH]1` [IPK 000 259 35], the inhibition at 20 µM [1] is reported as 68.8% and the inhibition at 20 µM [2] is reported as 66%.

`CC(=O)COc1c([N+](=O)[O-])ccc(F)c1F` [IPK 000 259 78] was tested, and the inhibition at 20 µM [1] was 58.8% and the inhibition at 20 µM [2] was 4.9%.

Work on `CSc1ccc(/C=N/Nc2nc(-c3ccc(NC(=O)CCC(=O)O)cc3)cs2)cc1` [IPK 000 262 07] yielded an inhibition at 20 µM [1] of 7.9% and an inhibition at 20 µM [2] of 80.3%.

`O=C(CCC(=O)Nc1ccccc1)N/N=C/c1ccc([N+](=O)[O-])o1` [IPK 000 262 39] was tested, and the inhibition at 20 µM [1] was 29.5% and the inhibition at 20 µM [2] was 2.1%.

With `CO[C@H]1/C=C/O[C@@]2(C)Oc3c(C)c(O)c4c(O)c(c(/C=N/N5CCN(C)CC5)c(O)c4c3C2=O)NC(=O)/C(C)=C\C=C\[C@H](C)[C@H](O)[C@@H](C)[C@@H](O)[C@@H](C)[C@H](OC(C)=O)[C@@H]1C` [rifampin, reference compound] the MIC (120 h, read-out: minimal inhibitory concentration (MIC)) was 2.4 µg/mL (≈ 2.92 µM).
